# Source: ChEMBL document CHEMBL1127149, “The squalestatins: potent inhibitors of squalene synthase. The role of the tricarboxylic acid moiety” (Bioorg Med Chem Lett, 1993)
# Target: T1, Squalene synthase (Rattus norvegicus, UniProt Q02769)
# T1 sequence (Q02769 whole entry): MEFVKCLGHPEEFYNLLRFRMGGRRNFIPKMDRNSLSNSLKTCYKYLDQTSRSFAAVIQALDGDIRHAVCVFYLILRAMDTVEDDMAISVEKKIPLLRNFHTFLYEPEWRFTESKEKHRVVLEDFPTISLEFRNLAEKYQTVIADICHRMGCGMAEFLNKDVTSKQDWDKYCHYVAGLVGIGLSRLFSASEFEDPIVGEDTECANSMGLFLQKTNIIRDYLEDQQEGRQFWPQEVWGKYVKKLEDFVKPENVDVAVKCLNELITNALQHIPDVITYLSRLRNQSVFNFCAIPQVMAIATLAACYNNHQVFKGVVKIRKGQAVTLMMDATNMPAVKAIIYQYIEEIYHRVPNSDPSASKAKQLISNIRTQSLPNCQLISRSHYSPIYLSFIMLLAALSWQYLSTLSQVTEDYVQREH
# Experiment: In vitro inhibitory activity measured against rat squalene synthase(SQS) enzyme
# Details: not given
row,IC50,SMILES
1,> 500 nM,C=C(CC[C@]12O[C@H](C(=O)OC)[C@@](O)(C(=O)OC)[C@](C(=O)OC)(O1)[C@H](OC(=O)/C=C/[C@@H](C)C[C@@H](C)CC)[C@H]2O)[C@@H](OC(C)=O)[C@H](C)Cc1ccccc1
2,220 nM,C=C(CC[C@]12O[C@H](C(=O)OC)[C@@](O)(C(=O)O)[C@](C(=O)O)(O1)[C@H](O)[C@H]2O)[C@@H](OC(C)=O)[C@H](C)Cc1ccccc1
3,134 nM,C=C(CC[C@]12O[C@H](C(=O)OC)[C@@](O)(C(=O)OC)[C@](C(=O)O)(O1)[C@H](OC(=O)/C=C/[C@@H](C)C[C@@H](C)CC)[C@H]2O)[C@@H](OC(C)=O)[C@H](C)Cc1ccccc1
4,355 nM,C=C(CC[C@]12O[C@H](C(=O)O)[C@@](O)(C(=O)OC)[C@](C(=O)O)(O1)[C@H](O)[C@H]2O)[C@@H](OC(C)=O)[C@H](C)Cc1ccccc1
5,> 500 nM,C=C(CC[C@]12O[C@H](C(=O)O)[C@@](O)(C(=O)O)[C@](C(=O)OC)(O1)[C@H](O)[C@H]2O)[C@@H](OC(C)=O)[C@H](C)Cc1ccccc1

# The next lines start with the molecule.
row,SMILES,IC50
1,C=C(CC[C@]12O[C@H](C(=O)O)[C@@](O)(C(=O)O)[C@](C(=O)OC)(O1)[C@H](OC(=O)/C=C/[C@@H](C)C[C@@H](C)CC)[C@H]2O)[C@@H](OC(C)=O)[C@H](C)Cc1ccccc1,> 500 nM
2,C=C(CC[C@]12O[C@H](C(=O)O)[C@@](O)(C(=O)OC)[C@](C(=O)OC)(O1)[C@H](OC(=O)/C=C/[C@@H](C)C[C@@H](C)CC)[C@H]2O)[C@@H](OC(C)=O)[C@H](C)Cc1ccccc1,> 500 nM
3,C=C(CC[C@]12O[C@H](C(=O)OC)[C@@](O)(C(=O)O)[C@](C(=O)OC)(O1)[C@H](OC(=O)/C=C/[C@@H](C)C[C@@H](C)CC)[C@H]2O)[C@@H](OC(C)=O)[C@H](C)Cc1ccccc1,> 500 nM

# Organism: Rattus norvegicus
# Experiment: Inhibitory activity of compound was measured against cholesterol biosynthesis from [14C]- acetate by isolated rat hepatocytes
# Type: functional
# Details: Hepatocyte
row,SMILES,IC50
1,C=C(CC[C@]12O[C@H](C(=O)O)[C@@](O)(C(=O)O)[C@](C(=O)O)(O1)[C@H](OC(=O)/C=C/[C@@H](C)C[C@@H](C)CC)[C@H]2O)[C@@H](OC(C)=O)[C@H](C)Cc1ccccc1 [ZARAGOZIC ACIDS A],39 nM
